From ChEMBL document CHEMBL4420062, “Tfpi inhibitors and methods of use” (2013)
Where a SMILES comes first, the peptide text is derived from it. [ ]: non-standard residue; d: D form. Aib = CC(C)(N)C(=O)O

Assays:
[1] = Stability in mouse plasma assessed as parent compound remaining after 24 hrs; format: ADME, cell-free; settings: read-out: Stability
[2] = Stability in human plasma assessed as parent compound remaining after 24 hrs; format: ADME, cell-free; settings: read-out: Stability
[3] = molecular target: T1, Tissue factor pathway inhibitor (Homo sapiens, UniProt P10646); assay: Binding affinity to TFPI (unknown origin) incubated for […] using tracer peptide JBT0131 by screening ELISA
T1 sequence (P10646 whole entry): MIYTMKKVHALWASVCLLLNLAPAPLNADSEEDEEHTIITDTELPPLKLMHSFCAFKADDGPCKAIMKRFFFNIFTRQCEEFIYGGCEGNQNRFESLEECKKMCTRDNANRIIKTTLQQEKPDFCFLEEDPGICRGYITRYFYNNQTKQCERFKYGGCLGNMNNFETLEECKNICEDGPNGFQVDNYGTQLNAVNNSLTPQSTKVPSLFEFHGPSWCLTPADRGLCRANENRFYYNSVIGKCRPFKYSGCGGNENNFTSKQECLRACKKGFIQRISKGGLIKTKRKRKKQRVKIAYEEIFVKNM

CCCCCC(=O)N[C@@H](Cc1ccccc1)C(=O)N[C@@H](CCC(N)=O)C(=O)N[C@@H](CO)C(=O)N[C@@H](CCCCN)C(=O)N1CCC[C@@H]1C(=O)N[C@@H](CC(N)=O)C(=O)N[C@H](C(=O)N[C@@H](Cc1cnc[nH]1)C(=O)N[C@H](C(=O)N[C@@H](CC(=O)O)C(=O)N[C@H](C)C(=O)N[C@@H](Cc1ccc(O)cc1)C(=O)N[C@@H](Cc1ccccc1)C(=O)N[C@@H](CCC(=O)O)C(=O)N[C@@H](CCCNC(=N)N)C(=O)N[C@@H](CC(C)C)C(=O)NC(C)(C)C(=O)N[C@@H](C)C(=O)N[C@@H](CCCCN)C(=O)N[C@@H](CC(C)C)C(N)=O)C(C)(C)C)C(C)C
remaining at 24 h [1]: 39.9% | remaining at 24 h [2]: 97.4%

CC(=O)N[C@@H](Cc1ccccc1)C(=O)N[C@@H](CCC(N)=O)C(=O)N[C@@H](CO)C(=O)N[C@@H](CCCCN)C(=O)N1CCC[C@@H]1C(=O)N[C@@H](CC(N)=O)C(=O)N[C@H](C(=O)N[C@@H](Cc1cnc[nH]1)C(=O)N[C@H](C(=O)N1CCC[C@H]1C(=O)N[C@H](C)C(=O)N[C@@H](Cc1ccc(O)cc1)C(=O)N[C@@H](Cc1ccccc1)C(=O)N[C@@H](CCC(=O)O)C(=O)N[C@@H](CCCNC(=N)N)C(=O)N[C@@H](CC(C)C)C(=O)NC(C)(C)C(=O)N[C@@H](C)C(=O)N[C@@H](CCCCN)C(=O)N[C@@H](CC(C)C)C(N)=O)C(C)C)C(C)C
remaining at 24 h [1]: 27.3% | remaining at 24 h [2]: 99.3%

CC(=O)N[C@@H](Cc1ccccc1)C(=O)N[C@@H](CCC(N)=O)C(=O)N[C@@H](CO)C(=O)N[C@@H](CCCCN)C(=O)N1CCC[C@@H]1C(=O)N[C@@H](CC(N)=O)C(=O)N[C@H](C(=O)N[C@@H](Cc1c[nH]cn1)C(=O)N[C@H](C(=O)N[C@@H](CC(=O)O)C(=O)NCC(=O)N[C@@H](Cc1ccc(O)cc1)C(=O)N[C@@H](Cc1ccccc1)C(=O)N[C@@H](CCC(=O)O)C(=O)N[C@@H](CCCNC(=N)N)C(=O)N[C@@H](CC(C)C)C(=O)NC(C)(C)C(=O)N[C@@H](C)C(=O)N[C@@H](CCCCN)C(=O)N[C@@H](CC(C)C)C(N)=O)C1CCCCC1)C(C)C
remaining at 24 h [1]: 5.4% | remaining at 24 h [2]: 27.6%

CC(=O)N[C@@H](Cc1ccccc1)C(=O)N[C@@H](CCC(N)=O)C(=O)N[C@@H](CO)C(=O)N[C@@H](CCCCN)C(=O)N1CCC[C@@H]1C(=O)N[C@@H](CC(N)=O)C(=O)N[C@H](C(=O)N[C@@H](Cc1cnc[nH]1)C(=O)N[C@H](C(=O)N[C@@H](CC(=O)O)C(=O)NCC(=O)N[C@@H](Cc1ccc(O)cc1)C(=O)N[C@@H](Cc1ccccc1)C(=O)N[C@@H](CCC(=O)O)C(=O)N[C@@H](CCCNC(=N)N)C(=O)N[C@@H](CC(C)C)C(=O)NC(C)(C)C(=O)N[C@@H](C)C(=O)N[C@@H](CCCCN)C(=O)N[C@@H](CC(C)C)C(N)=O)C(C)C)C1CCCCC1
remaining at 24 h [1]: 4.1%

CC(=O)N[C@@H](Cc1ccccc1)C(=O)N[C@@H](CCC(N)=O)C(=O)N[C@@H](CO)C(=O)N[C@@H](CCCCN)C(=O)N1CCC[C@@H]1C(=O)N[C@@H](CC(N)=O)C(=O)N[C@H](C(=O)N[C@@H](Cc1cnc[nH]1)C(=O)N[C@H](C(=O)N[C@@H](CC(=O)O)C(=O)NCC(=O)N[C@@H](Cc1ccc(O)cc1)C(=O)N[C@@H](Cc1ccccc1)C(=O)N[C@@H](CCC(=O)O)C(=O)N[C@@H](CCCNC(=N)N)C(=O)N[C@@H](CC(C)C)C(=O)NC(C)(C)C(=O)N[C@@H](C)C(=O)N[C@@H](CCCCN)C(=O)N[C@@H](CC(C)C)C(N)=O)C(C)C)C(C)C
remaining at 24 h [1]: 5 to 10% | remaining at 24 h [2]: 10 to 27%

CC(=O)N[C@@H](Cc1cccc2ccccc12)C(=O)N[C@@H](CCC(N)=O)C(=O)N[C@@H](CO)C(=O)N[C@@H](CCCCN)C(=O)N1CCC[C@@H]1C(=O)N[C@@H](CC(N)=O)C(=O)N[C@H](C(=O)N[C@@H](Cc1cnc[nH]1)C(=O)N[C@H](C(=O)N[C@@H](CC(=O)O)C(=O)NCC(=O)N[C@@H](Cc1ccc(O)cc1)C(=O)N[C@@H](Cc1ccccc1)C(=O)N[C@@H](CCC(=O)O)C(=O)N[C@@H](CCCNC(=N)N)C(=O)N[C@@H](CC(C)C)C(=O)NC(C)(C)C(=O)N[C@@H](C)C(=O)N[C@@H](CCCCN)C(=O)N[C@@H](CC(C)C)C(N)=O)C(C)C)C(C)C
remaining at 24 h [1]: 0% | remaining at 24 h [2]: 19.3%

CC(=O)N[C@@H](Cc1ccccc1)C(=O)N[C@@H](CCC(N)=O)C(=O)N[C@@H](CO)C(=O)N[C@@H](CCCCN)C(=O)N1CCC[C@@H]1C(=O)N[C@@H](CC(N)=O)C(=O)N[C@H](C(=O)N[C@@H](Cc1cnc[nH]1)C(=O)N[C@H](C(=O)N[C@@H](CC(=O)O)C(=O)NCC(=O)N[C@@H](Cc1ccc(O)cc1)C(=O)N[C@@H](Cc1ccccc1)C(=O)N[C@@H](CCC(=O)O)C(=O)N[C@@H](CCCNC(=N)N)C(=O)N[C@@H](CC(C)C)C(=O)NC(C)(C)C(=O)N[C@@H](CC(C)C)C(=O)N[C@@H](CCCCN)C(=O)N[C@@H](CC(C)C)C(N)=O)C(C)(C)C)C(C)C
remaining at 24 h [1]: 13.7% | remaining at 24 h [2]: 78.7%

CCC(CC)(NC(=O)[C@H](CC(C)C)NC(=O)[C@H](CCCNC(=N)N)NC(=O)[C@H](CCC(=O)O)NC(=O)[C@H](Cc1ccccc1)NC(=O)[C@H](Cc1ccc(O)cc1)NC(=O)[C@@H](C)NC(=O)[C@H](CC(=O)O)NC(=O)[C@@H](NC(=O)[C@H](Cc1cnc[nH]1)NC(=O)[C@@H](NC(=O)[C@H](CC(N)=O)NC(=O)[C@H]1CCCN1C(=O)[C@H](CCCCN)NC(=O)[C@H](CO)NC(=O)[C@H](CCC(N)=O)NC(=O)[C@H](Cc1ccccc1)NC(C)=O)C(C)C)C(C)(C)C)C(=O)N[C@@H](C)C(=O)N[C@@H](CCCCN)C(=O)N[C@@H](CC(C)C)C(N)=O
remaining at 24 h [1]: 62.9%

CC(=O)N[C@H](CC(C)C)C(=O)N[C@H](CCCCN)C(=O)N[C@H](C)C(=O)N[C@H](CCCNC(=N)N)C(=O)N[C@H](CC(C)C)C(=O)N[C@H](CCCNC(=N)N)C(=O)N[C@H](CCC(=O)O)C(=O)N[C@H](Cc1ccccc1)C(=O)N[C@H](Cc1ccc(O)cc1)C(=O)NCC(=O)N[C@H](Cc1ccccc1)C(=O)N[C@@H](C(=O)N[C@H](Cc1ccccc1)C(=O)N[C@@H](C(=O)N[C@H](CC(N)=O)C(=O)N[C@H](CCCCN)C(=O)N[C@H](CCCCN)C(=O)N[C@H](CO)C(=O)N[C@H](CCC(N)=O)C(=O)N[C@H](Cc1ccccc1)C(N)=O)C(C)C)C(C)C
IC50 [3]: 0.556 to 1.67 µM

CC(=O)N[C@@H](Cc1ccccc1)C(=O)N[C@@H](CCC(N)=O)C(=O)N[C@@H](CO)C(=O)N[C@@H](CCCCN)C(=O)N1CCC[C@@H]1C(=O)N[C@@H](CC(N)=O)C(=O)N[C@H](C(=O)N[C@@H](Cc1cnc[nH]1)C(=O)N[C@H](C(=O)N[C@@H](CC(=O)O)C(=O)NCC(=O)N[C@@H](Cc1ccc(O)cc1)C(=O)N[C@@H](Cc1cccc2ccccc12)C(=O)N[C@@H](CCC(=O)O)C(=O)N[C@@H](CCCNC(=N)N)C(=O)N[C@@H](CC(C)C)C(=O)NC(C)(C)C(=O)N[C@@H](C)C(=O)N[C@@H](CCCCN)C(=O)N[C@@H](CC(C)C)C(N)=O)C(C)C)C(C)C
remaining at 24 h [1]: 6.3%

Ac-FQSKKNVFVFGYFEGLRAKL-NH2
IC50 [3]: > 5 µM

Ac-FQSKKFVFVFGYFERLRAKL-NH2
IC50 [3]: > 5 µM

Ac-FQSKKNVFVFGGFERLRAKL-NH2
IC50 [3]: > 5 µM

Ac-FQSKHHVFVDGYFERLCAKL-NH2
IC50 [3]: < 0.05 µM

CC(=O)N[C@@H](Cc1ccccc1)C(=O)N[C@@H](CCC(N)=O)C(=O)N[C@@H](CO)C(=O)N[C@@H](CCCCN)C(=O)N1CCC[C@@H]1C(=O)N[C@@H](CC(N)=O)C(=O)N[C@H](C(=O)N[C@@H](Cc1cnc[nH]1)C(=O)N[C@H](C(=O)N[C@@H](CC(=O)O)C(=O)N[C@H](C)C(=O)N[C@@H](Cc1ccc(O)cc1)C(=O)N[C@@H](Cc1ccccc1)C(=O)N[C@@H](CCC(=O)O)C(=O)N[C@@H](CCCNC(=N)N)C(=O)N[C@H]1CCSSCC[C@@H](C(N)=O)NC(=O)[C@H](CCCCN)NC(=O)[C@H](C)NC(=O)C(C)(C)NC1=O)C(C)(C)C)C(C)C
remaining at 24 h [1]: 65.5%

COc1ccc(C[C@H](NC(=O)CNC(=O)[C@H](CC(=O)O)NC(=O)[C@@H](NC(=O)[C@H](Cc2cnc[nH]2)NC(=O)[C@@H](NC(=O)[C@H](CC(N)=O)NC(=O)[C@H]2CCCN2C(=O)[C@H](CCCCN)NC(=O)[C@H](CO)NC(=O)[C@H](CCC(N)=O)NC(=O)[C@H](Cc2ccccc2)NC(C)=O)C(C)C)C(C)C)C(=O)N[C@@H](Cc2ccccc2)C(=O)N[C@@H](CCC(=O)O)C(=O)N[C@@H](CCCNC(=N)N)C(=O)N[C@@H](CC(C)C)C(=O)NC(C)(C)C(=O)N[C@@H](C)C(=O)N[C@@H](CCCCN)C(=O)N[C@@H](CC(C)C)C(N)=O)cc1
remaining at 24 h [1]: 7.3%

CC(=O)N[C@@H](Cc1ccccc1)C(=O)N[C@@H](CCC(N)=O)C(=O)N[C@@H](CO)C(=O)N[C@@H](CCCCN)C(=O)NCC(=O)N[C@@H](CC(N)=O)C(=O)N[C@H](C(=O)N[C@@H](Cc1ccccc1)C(=O)N[C@H](C(=O)N[C@@H](CC(=O)O)C(=O)NCC(=O)N[C@@H](Cc1ccc(O)cc1)C(=O)N[C@@H](Cc1ccccc1)C(=O)N[C@@H](CCC(=O)O)C(=O)NC(C)(C)C(=O)N[C@@H](CC(C)C)C(=O)NC(C)(C)C(=O)N[C@@H](C)C(=O)N[C@@H](CCCCN)C(=O)N[C@@H](CC(C)C)C(N)=O)C(C)C)C(C)C (Ac-FQSKGNVFVDGYFE[Aib]L[Aib]AKL-NH2)
IC50 [3]: > 5 µM

CC(=O)N[C@@H](Cc1ccccc1)C(=O)N[C@@H](CCC(N)=O)C(=O)N[C@@H](CO)C(=O)N[C@@H](CCCCN)C(=O)NCC(=O)N[C@@H](CC(N)=O)C(=O)N[C@H](C(=O)N[C@@H](Cc1ccccc1)C(=O)N[C@H](C(=O)N[C@@H](CC(=O)O)C(=O)NCC(=O)NC(C)(C)C(=O)NC(C)(C)C(=O)N[C@@H](C)C(=O)N[C@@H](CCCCN)C(=O)N[C@@H](CC(C)C)C(N)=O)C(C)C)C(C)C (Ac-FQSKGNVFVDG[Aib][Aib]AKL-NH2)
IC50 [3]: > 5 µM

Ac-FQSKKNVFVFGYFERLRAFL-NH2
IC50 [3]: > 5 µM
